Consider one substance from paper PMC5684143, “New melanocortin-like peptide of E. coli can suppress inflammation via the mammalian melanocortin-1 receptor (MC1R): possible endocrine-like function for microbes of the gut” (NPJ Biofilms and Microbiomes, 2017).

Assay [1] deals with RAW 264.7 cells. Nature of the assay: HMGB1-induced TNF release by RAW 264.7 macrophage-like cells. The format is cell-based, murine. The protocol:
Fig. 1 MECO-1 attenuates HMGB1-induced TNF release by macrophages in culture. Murine macrophage-like RAW 264.7 cells were incubated for up to 24 h with purified recombinant HMGB1 (0.1 mg/ml) in the absence or presence of MECO-1 (Panel a), or alpha-MSH (Panel b), at 10^−10 and 10^−12 M. The levels of TNF in the culture medium were determined by ELISA and expressed as mean ± SEM of two independent experiments (in duplicate). *p < 0.05, **p < 0.01 vs. control (“HMGB1 alone”). […] In panels c and d, cells were incubated with HMGB1 for 6 h with or without MECO-1 or alpha-MSH (10^−16–10^−6 M). Data represent mean ± SEM of three independent experiments performed in duplicate. With 10^−14 M peptide, results were significant at *p < 0.05, and at 10^−12 M or more were typically **p < 0.01. In our experiments, at concentrations of MECO-1, alpha-MSH, and ACTH of around 1 nM and higher, dose response curves often reverse direction, i.e., turn upward. The reversal is more clearly seen in Fig. 2. The mechanism of the reversal is not known. (Desensitization, receptor inactivation, receptor internalization, and dissociation of dimeric receptors are all plausible candidates.) As a result, the shape of the lower part of the curve and the actual inflection point may vary from experiment to experiment. This feature may be missed when results of several experiments are combined
(§1) Murine macrophage-like RAW 264.7 cells were obtained from American Type Culture Collection, and were grown in Dulbecco’s Modified Eagle’s Medium (DMEM, Life Technologies) containing 10% (vol/vol) heat-inactivated fetal bovine serum (FBS, Hyclone Lab. Inc.), penicillin 100 U/ml, and streptomycin 100 μg/ml (BioWhittaker Inc.). Cells were suspended in medium and incubated in 24-well or 48-well tissue-culture plates overnight in a humidified incubator (37 °C, 5% CO2). Growth medium was removed and replaced by Opti-MEM I serum-free medium (Life Technologies) overnight. In the experiments, cell monolayers were stimulated with HMGB1 or LPS, in the absence or presence of MECO-1 or alpha-MSH; cell-free supernatants were assayed for TNF by ELISA or HMGB1 by western blotting.
(§2) Concentrations of TNF and IL-6 were each determined using a commercially available enzyme-linked immunosorbent assay (ELISA) kit (R&D System Inc.) as previously described.[34] The levels of TNF or IL-6 were calculated with reference to standard curves.
Fig. 3 Antibody to MC1R blocks suppressant effect of MECO-1 and alpha-MSH. Murine macrophage-like RAW 264.7 cells were pretreated with specific antibodies (“anti-MC1R Ab”) against melanocortin-1 receptor (MC1R) for 10 min prior to addition of HMGB1 in the absence or presence of MECO-1 or alpha-MSH at 10^−12 M. At 6 h, the TNF content of the cell-free medium was determined by ELISA, and expressed as mean ± SEM of two independent experiments performed in duplicate. ACTH at the same concentration gave results that were indistinguishable from those of alpha-MSH and MECO-1 (data not shown)

For assay [2], the system named is RAW 264.7 cells. The experiment in a line: Poly I:C-induced TNF release by RAW 264.7 cells. It counts as cell-based, murine. Particulars: peptide 10^−15 to 10^−9 M; reduced effects above that. As to the method: as §1, §2
Fig. 2 Cytokine-induced TNF release inhibited by MECO-1. a Lipopolysaccharide (LPS), derived from the cell wall of Gram-negative bacteria, is a TLR4 and TLR2 agonist. RAW 264.7 cells were treated with MECO-1 and LPS simultaneously and incubated overnight. Supernatants were tested for TNF with ELISA. b Poly I:C, synthetic double stranded RNA, is recognized by TLR3. […]

As to “alpha-melanocyte-stimulating hormone [alpha-MSH]”, in the assay on RAW 264.7 cells [1] (6 h incubation, dose range 10^−16–10^−6 M, three independent experiments in duplicate, p < 0.05), the “peptide concentration at which significant effects on HMGB1-induced TNF release were noted” value is on record as 10^−14 M. In addition, in the assay with RAW 264.7 cells [1] (Fig. 2d dose response, RAW 264.7 cells), the “inhibition of HMGB-1-induced TNF release” value is recorded as “up to 80%”. The “TNF accumulation with HMGB1 on co-incubation with peptide” value in the assay with RAW 264.7 cells [1] (peptide 10^−12–10^−8 M) is reported as “substantially reduced”. Also, in the assay on RAW 264.7 cells [1] (peptide at 1 pM and 100 pM, 4 to 16 h after HMGB-1, HMGB1 0.1 mg/ml, ELISA, two independent experiments in duplicate), the “HMGB-1-stimulated TNF-alpha release” value is reported as “blunted substantially”. Also, the “inhibition of Poly I:C-induced TNF release” value in the assay with RAW 264.7 cells [2] was “up to 90%”.
